From patent publication US20150315188A1, “COMPOUNDS AND METHODS FOR TREATMENT OF HYPERTENSION” (MEDIVATION TECHNOLOGIES, INC., priority 2012, published 2015)

Columns and labels:
Design in all cases: purchased Milipore (Millipore)
[1] = target: T1, Human adrenergic α2A receptor (Homo sapiens, UniProt P08913); assay: Radioligand binding, adrenergic α2A (Protocol Group B); details: Protocol Group B; for inhibition at 0.1 µM / Percentage inhibition of ligand binding, Adrenergic α2A (0.1 μM): 0.1 μM compound; for inhibition at 0.1 µM: read-out: Percentage inhibition of ligand binding, Adrenergic α2A (0.1 μM); for inhibition at 0.3 µM / Percentage inhibition of ligand binding, Adrenergic α2A (0.3 μM): 0.3 μM compound; for inhibition at 0.3 µM: read-out: Percentage inhibition of ligand binding, Adrenergic α2A (0.3 μM)
T1 sequence (P08913 1-465): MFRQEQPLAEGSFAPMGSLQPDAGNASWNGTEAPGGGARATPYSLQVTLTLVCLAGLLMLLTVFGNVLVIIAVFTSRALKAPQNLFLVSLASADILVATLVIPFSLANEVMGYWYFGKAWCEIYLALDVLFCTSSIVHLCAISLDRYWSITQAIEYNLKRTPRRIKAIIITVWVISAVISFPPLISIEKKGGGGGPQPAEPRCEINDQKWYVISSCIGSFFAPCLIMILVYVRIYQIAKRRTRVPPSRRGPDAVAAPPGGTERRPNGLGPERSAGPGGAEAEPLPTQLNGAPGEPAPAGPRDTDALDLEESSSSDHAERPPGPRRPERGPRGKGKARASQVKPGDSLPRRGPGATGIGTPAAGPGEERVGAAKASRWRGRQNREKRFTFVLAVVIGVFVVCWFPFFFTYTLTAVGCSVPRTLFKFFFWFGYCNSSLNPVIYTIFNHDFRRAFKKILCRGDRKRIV
Summary of the method: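 Compounds (1% DMSO vehicle, various concentrations) competed against 2 nM [^3H]MK-912 on recombinant receptor membranes for 60 min at 25° C, Tris-HCl pH 7.4 buffer with Mg2+, Ca2+, BSA. Bound radioligand filtered and counted; 10 μM rauwolscine set nonspecific binding. Values: percent inhibition of specific binding or estimated Ki.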

[2] = target: T2, Human adrenergic α1B receptor (Homo sapiens, UniProt P35368); assay: Radioligand binding, adrenergic α1B (Protocol Group B); details: Protocol Group B; for inhibition at 0.1 µM / Percentage inhibition of ligand binding, Adrenergic α1B (0.1 μM): 0.1 μM compound; for inhibition at 0.1 µM: read-out: Percentage inhibition of ligand binding, Adrenergic α1B (0.1 μM); for inhibition at 0.3 µM / Percentage inhibition of ligand binding, Adrenergic α1B (0.3 μM): 0.3 μM compound; for inhibition at 0.3 µM: read-out: Percentage inhibition of ligand binding, Adrenergic α1B (0.3 μM)
T2 sequence (P35368 1-520): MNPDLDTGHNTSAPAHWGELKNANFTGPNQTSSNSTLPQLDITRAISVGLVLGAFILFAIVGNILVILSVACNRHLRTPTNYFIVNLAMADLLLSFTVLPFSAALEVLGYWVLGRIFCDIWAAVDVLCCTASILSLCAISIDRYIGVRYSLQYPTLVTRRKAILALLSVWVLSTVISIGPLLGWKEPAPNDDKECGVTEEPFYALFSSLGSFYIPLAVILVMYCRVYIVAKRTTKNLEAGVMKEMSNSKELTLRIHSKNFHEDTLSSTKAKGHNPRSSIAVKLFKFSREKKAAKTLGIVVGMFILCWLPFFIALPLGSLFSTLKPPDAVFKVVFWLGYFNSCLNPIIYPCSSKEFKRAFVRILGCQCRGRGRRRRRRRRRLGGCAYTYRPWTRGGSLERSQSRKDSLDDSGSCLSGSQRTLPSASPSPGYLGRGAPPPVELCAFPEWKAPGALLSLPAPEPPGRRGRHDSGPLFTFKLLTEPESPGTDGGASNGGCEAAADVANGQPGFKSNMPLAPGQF
Summary of the method: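 Values are percent inhibition of specific [3H]prazosin (0.3 nM) binding or estimated Ki, from filtration counting. Human α1B recombinant membranes, Tris-HCl pH 7.4 buffer with MgCl2 and EDTA, 60 min at 25 °C, 1% DMSO vehicle; 10 μM prazosin defined nonspecific binding.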

[3] = target: T3, Human adrenergic α2B receptor (Homo sapiens, UniProt P18089); assay: Radioligand binding, adrenergic α2B (Protocol Group B); details: Protocol Group B; for inhibition at 0.01 µM / Percentage inhibition of ligand binding, Adrenergic α2B (10 nM): 10 nM compound; for inhibition at 0.01 µM: read-out: Percentage inhibition of ligand binding, Adrenergic α2B (10 nM); for inhibition at 0.03 µM / Percentage inhibition of ligand binding, Adrenergic α2B (30 nM): 30 nM compound; for inhibition at 0.03 µM: read-out: Percentage inhibition of ligand binding, Adrenergic α2B (30 nM); for inhibition at 0.1 µM / Percentage inhibition of ligand binding, Adrenergic α2B (0.1 μM): 0.1 μM compound; for inhibition at 0.1 µM: read-out: Percentage inhibition of ligand binding, Adrenergic α2B (0.1 μM); for Percentage inhibition of ligand binding, Adrenergic α2B (10 nM): 0.01 µM; for Percentage inhibition of ligand binding, Adrenergic α2B (30 nM): 0.03 µM
T3 sequence (P18089 1-450): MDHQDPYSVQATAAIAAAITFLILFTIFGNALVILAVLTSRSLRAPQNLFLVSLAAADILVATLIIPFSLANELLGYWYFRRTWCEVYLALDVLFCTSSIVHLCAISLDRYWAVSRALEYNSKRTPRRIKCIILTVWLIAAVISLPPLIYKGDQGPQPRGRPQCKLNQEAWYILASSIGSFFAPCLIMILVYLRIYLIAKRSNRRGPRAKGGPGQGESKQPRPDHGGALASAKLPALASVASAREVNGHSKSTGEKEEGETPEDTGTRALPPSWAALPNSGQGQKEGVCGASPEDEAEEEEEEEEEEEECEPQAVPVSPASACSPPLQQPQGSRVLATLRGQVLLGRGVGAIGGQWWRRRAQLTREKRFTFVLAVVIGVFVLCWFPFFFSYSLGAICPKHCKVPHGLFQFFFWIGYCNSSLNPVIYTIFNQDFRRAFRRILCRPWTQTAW
Summary of the method: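 Compounds at various concentrations in 1% DMSO were tested on recombinant membranes in Tris-HCl pH 7.4 buffer containing MgCl2, CaCl2 and 0.2% BSA.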

inhibition at 0.1 µM [1] [%] | inhibition at 0.3 µM [1] [%] | inhibition at 0.1 µM [2] [%] | inhibition at 0.3 µM [2] [%] | inhibition at 0.01 µM [3] [%] | inhibition at 0.03 µM [3] [%] | inhibition at 0.1 µM [3] [%] | Percentage inhibition of ligand binding, Adrenergic α2A (0.1 μM) [1] [%] | Percentage inhibition of ligand binding, Adrenergic α2A (0.3 μM) [1] [%] | Percentage inhibition of ligand binding, Adrenergic α1B (0.1 μM) [2] [%] | Percentage inhibition of ligand binding, Adrenergic α1B (0.3 μM) [2] [%] | Percentage inhibition of ligand binding, Adrenergic α2B (10 nM) [3] [%] | Percentage inhibition of ligand binding, Adrenergic α2B (30 nM) [3] [%] | Percentage inhibition of ligand binding, Adrenergic α2B (0.1 μM) [3] [%] | Structure (SMILES)
28 | 53 | 9 | 40 | 50 | 74 | 91 | – | – | – | – | – | – | – | Cc1ccc2c(c1)c1c(n2CC(OC(C)C)c2ccncc2)CCN(C)C1 (stereo not shown) [compound 49, 5-(2-isopropoxy-2-(pyridin-4-yl)ethyl)-2,8-dimethyl-2,3,4,5-tetrahydro-1H-pyrido[4,3-b]indole]
71 | 87 | 74 | 90 | 81 | 99 | 101 | – | – | – | – | – | – | – | Cc1ccc2c(c1)c1c(n2CC(O)c2ccncc2F)CCN2CCCC12 (stereo not shown) [compound 14, 1-(3-fluoropyridin-4-yl)-2-(10-methyl-2,3,5,6-tetrahydro-1H-indolizino[7,8-b]indol-7 (11cH)-yl)ethanol]
– | – | – | – | – | – | – | 1 | 0 | 12 | 16 | 6 | −11 | 16 | Cc1ccc2c(c1)c1c(n2CC(C)(O)c2cccnc2)CC(CO)N(C)C1 (single isomer, unassigned) [15b]
– | – | – | – | – | – | – | 3 | 12 | −9 | 8 | 6 | 28 | 59 | CN1CCc2c(c3cc(C(F)(F)F)ccc3n2CC(OC2CCCC2)c2ccncc2)C1 (single isomer, unassigned) [60b]
– | – | – | – | – | – | – | −7 | 13 | −2 | −1 | 9 | 21 | 48 | Cc1ccc2c(c1)c1c(n2CC(C)(O)c2cccnc2)CC2CCCN2C1 (stereo not shown) [41d]
– | 10 | 9 | 14 | 13 | 27 | – | 7 | – | – | – | – | – | 26 | Cc1ccc2c(c1)c1c(n2CC(OC(N)=O)c2ccncc2)CCN(C)C1 (single isomer, unassigned) [8b]
– | – | – | – | – | – | – | 11 | 6 | 5 | 9 | −7 | 8 | 18 | Cc1cc(F)c2c(c1)c1c(n2CC(C)(O)c2ccncc2)CCN2CCCC12 (single isomer, unassigned) [81d]
– | 30 | – | – | – | – | 72 | 14 | – | 22 | 43 | 21 | 45 | – | Cc1cc(F)c2c(c1)c1c(n2CC(C)(O)c2ccncc2)CC2CCCN2C1 (single isomer, unassigned) [62a]
– | – | – | – | – | – | – | 95 | – | 76 | – | – | 100 | – | Cc1cc(Cl)c2c(c1)c1c(n2CC(O)c2ccncc2)CCN2CCCC12 (single isomer, unassigned) [142b]
– | – | – | – | – | – | – | −2 | 11 | −19 | 6 | −1 | 24 | – | Cc1cc(Cl)c2c(c1)c1c(n2CC(C)(O)c2ccncc2)CCN2CCCC12 (single isomer, unassigned) [91d]
– | – | – | – | – | – | – | 0 | −11 | −5 | 3 | 11 | 4 | 19 | Cc1ccc2c(c1)c1c(n2CC(O)c2ccccn2)CC2CCCN2C1 (single isomer, unassigned) [45c]
– | – | – | – | – | – | – | 7 | 11 | 3 | 13 | 13 | 28 | – | CC(O)(Cn1c2c(c3cc(Cl)cc(F)c31)CN1CCCC1C2)c1ccncc1 (single isomer, unassigned) [86d]
– | – | – | – | – | – | – | 3 | −1 | −11 | −2 | 20 | 33 | – | Cc1cc(F)cc2c3c(n(CC(C)(O)c4ccncc4)c12)CC1CCCN1C3 (single isomer, unassigned) [78c]
– | – | – | – | – | – | – | 3 | 20 | −7 | 9 | 7 | 27 | 76 | Cc1ccc2c(c1)c1c(n2CC(C)(O)c2ccncc2)CCN2CCCC12 (single isomer, unassigned) [13d]
